Activity calls are given as the source filed them. The rule behind the calls is not given here.

The assay relates to Platelet. The assay can be described thus: Inhibition of collagen-induced human platelet aggregation after 3 mins by light transmission aggregometry. It is filed as functional, cell-based. The note with it: for IC50: 0.05 h.

Consider `OC[C@H]1O[C@@H](n2cnc3c(NCc4ccc(O)cc4)ncnc32)[C@H](O)[C@@H]1O`, for which half-maximal inhibition (IC50) required 6.77 µM.
Turning to `c1coc(CNc2ncnc3[nH]cnc23)c1`, the inhibition entry is “Active”.
The compound `OC[C@H]1O[C@@H](n2cnc3c(NCc4ccco4)ncnc32)[C@H](O)[C@@H]1O` [KINETIN RIBOSIDE] showed a half-maximal inhibitory concentration (IC50) of 41.2 µM.
The same measure, in the same setting: as for `OC[C@H]1O[C@@H](n2cnc3c(NCc4ccccc4)ncnc32)[C@H](O)[C@@H]1O` [N6-BENZYLADENOSINE], the figure is 37.1 µM.
The same measure, in the same setting: under `CC(C)=CCNc1ncnc2c1ncn2[C@@H]1O[C@H](CO)[C@@H](O)[C@H]1O` [RIBOPRINE] stands 142 µM.

For orientation: IC50 means the concentration needed to halve the response being measured. Read a low IC50 as greater potency.

The values above are taken from ChEMBL document CHEMBL3351821, “Naturally occurring N(6)-substituted adenosines (cytokinin ribosides) are in vitro inhibitors of platelet aggregation: an in silico evaluation of their interaction with the P2Y(12) receptor” (Bioorg Med Chem Lett, 2014).
